Results reported in ChEMBL document CHEMBL1201862, “PubChem BioAssay data set” (2004).
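Results reflect a 48-hour exposure of cells in 96-well plates to compound at five concentrations. Here, GI50 denotes the concentration required for 50% inhibition of growth.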 The source made the active and inactive calls. Rule as the data show it: active = GI50 up to about 1.1 µM and inactive = higher.

Tests used:
Test in all cases: inhibition of tumour cell growth, NCI panel, 48 h
[1] = system: A498
[2] = system: CCRF-CEM
[3] = system: DU-145
[4] = system: EKVX
[5] = system: HOP-62
[6] = system: HOP-92
[7] = system: HT-29
[8] = system: KM12
[9] = system: M14
[10] = system: MCF7
[11] = system: MDA-MB-231
[12] = system: Malme-3M
[13] = system: NCI-H522
[14] = system: OVCAR-8
[15] = system: RPMI-8226
[16] = system: SNB-75
[17] = system: T47D
[18] = system: UACC-62
[19] = system: SK-MEL-2
[20] = system: HCC 2998

| SMILES | GI50 [1] | GI50 [2] | GI50 [3] | GI50 [4] | GI50 [5] | GI50 [6] | GI50 [7] | GI50 [8] | GI50 [9] | GI50 [10] | GI50 [11] | GI50 [12] | GI50 [13] | GI50 [14] | GI50 [15] | GI50 [16] | GI50 [17] | GI50 [18] | GI50 [19] | GI50 [20] |
| --- | --- | --- | --- | --- | --- | --- | --- | --- | --- | --- | --- | --- | --- | --- | --- | --- | --- | --- | --- | --- |
| C/C(=N\NC(=S)N/N=C(\C)c1ccccn1)c1ccccn1 | 6.03 µM (inactive) | 0.337 µM (active) | 3.62 µM (inactive) | 1.12 µM (inactive) | 1.05 µM (active) | 2.82 µM (inactive) | 0.575 µM (active) | 1.28 µM (inactive) | 1.27 µM (inactive) | 1.85 µM (inactive) | 21.5 µM (inactive) | 2.38 µM (inactive) | 6.49 µM (inactive) | 1.05 µM (active) | 2.54 µM (inactive) | 5.93 µM (inactive) | 6.31 µM (inactive) | 1.71 µM (inactive) | – | – |
| CCCC(CCC(N)=O)(CCC(N)=O)[N+](=O)[O-] | – | > 100 µM (inactive) | > 100 µM (inactive) | > 100 µM (inactive) | – | > 100 µM (inactive) | > 100 µM (inactive) | > 100 µM (inactive) | > 100 µM (inactive) | > 100 µM (inactive) | > 100 µM (inactive) | > 100 µM (inactive) | 26.5 µM (inactive) | > 100 µM (inactive) | > 100 µM (inactive) | > 100 µM (inactive) | > 100 µM (inactive) | > 100 µM (inactive) | > 100 µM (inactive) | – |
| Cc1nc(-c2cc3ccccc3oc2=O)cs1 | – | > 100 µM (inactive) | > 100 µM (inactive) | 34.2 µM (inactive) | 16.6 µM (inactive) | 19 µM (inactive) | > 100 µM (inactive) | > 100 µM (inactive) | > 100 µM (inactive) | > 100 µM (inactive) | 25.1 µM (inactive) | 7.23 µM (inactive) | 17 µM (inactive) | 47 µM (inactive) | > 100 µM (inactive) | < 0.01 µM (active) | > 100 µM (inactive) | 31.3 µM (inactive) | 85.3 µM (inactive) | > 100 µM (inactive) |
| Cc1cc2nc3c(C#N)c4c(c(-c5ccc(Cl)cc5)n3c2cc1C)CCC4 | 28.1 µM (inactive) | 24.2 µM (inactive) | 20.9 µM (inactive) | 24.2 µM (inactive) | 22.4 µM (inactive) | 20.3 µM (inactive) | 21.3 µM (inactive) | 22 µM (inactive) | 17.5 µM (inactive) | 33.1 µM (inactive) | 22.2 µM (inactive) | 23.3 µM (inactive) | 18.7 µM (inactive) | – | 26.5 µM (inactive) | – | 22.3 µM (inactive) | 18.4 µM (inactive) | 19 µM (inactive) | – |
| CC(=O)C(C)(C)CCC(C)(C)C(C)=O | – | > 100 µM (inactive) | > 100 µM (inactive) | > 100 µM (inactive) | > 100 µM (inactive) | – | > 100 µM (inactive) | > 100 µM (inactive) | > 100 µM (inactive) | > 100 µM (inactive) | > 100 µM (inactive) | > 100 µM (inactive) | > 100 µM (inactive) | > 100 µM (inactive) | – | > 100 µM (inactive) | > 100 µM (inactive) | > 100 µM (inactive) | > 100 µM (inactive) | > 100 µM (inactive) |
| N#Cc1c(N2CCCC2)nsc1Nc1ccc(F)cc1 | > 100 µM (inactive) | > 100 µM (inactive) | > 100 µM (inactive) | 19.7 µM (inactive) | > 100 µM (inactive) | > 100 µM (inactive) | > 100 µM (inactive) | > 100 µM (inactive) | > 100 µM (inactive) | – | > 100 µM (inactive) | > 100 µM (inactive) | 57.9 µM (inactive) | 78 µM (inactive) | > 100 µM (inactive) | – | > 100 µM (inactive) | > 100 µM (inactive) | > 100 µM (inactive) | > 100 µM (inactive) |
| C1=C(CC2=C[P+](c3ccccc3)(c3ccccc3)C=C(c3ccccc3)O2)OC(c2ccccc2)=C[P+]1(c1ccccc1)c1ccccc1 | 0.716 µM (active) | 0.361 µM (active) | 0.482 µM (active) | 0.44 µM (active) | 0.597 µM (active) | 0.166 µM (active) | 0.358 µM (active) | 0.325 µM (active) | 0.573 µM (active) | 0.392 µM (active) | 0.313 µM (active) | 0.248 µM (active) | – | 0.239 µM (active) | 0.18 µM (active) | 0.291 µM (active) | 0.17 µM (active) | – | – | – |
| NS(=O)(=O)c1cc(C(=O)O)c(O)c2ccccc12 | > 100 µM (inactive) | > 100 µM (inactive) | > 100 µM (inactive) | > 100 µM (inactive) | > 100 µM (inactive) | > 100 µM (inactive) | > 100 µM (inactive) | > 100 µM (inactive) | > 100 µM (inactive) | > 100 µM (inactive) | > 100 µM (inactive) | 92 µM (inactive) | > 100 µM (inactive) | > 100 µM (inactive) | > 100 µM (inactive) | 82.6 µM (inactive) | > 100 µM (inactive) | > 100 µM (inactive) | > 100 µM (inactive) | – |
| Cc1cc2cc3cc(C)c(N)cc3nc2cc1N [ACRIDINE YELLOW] | 0.619 µM (active) | 0.383 µM (active) | 0.647 µM (active) | 0.535 µM (active) | 0.465 µM (active) | 0.726 µM (active) | 0.359 µM (active) | 0.508 µM (active) | 3.53 µM (inactive) | 0.475 µM (active) | 0.211 µM (active) | 1.26 µM (inactive) | 0.271 µM (active) | 0.518 µM (active) | 0.217 µM (active) | 1.53 µM (inactive) | 0.865 µM (active) | 0.942 µM (active) | 3.88 µM (inactive) | – |
| Nc1cccc(OCc2nc(N)nc(N)c2-c2ccc(Cl)cc2)c1 | 39.4 µM (inactive) | 13.1 µM (inactive) | 73.1 µM (inactive) | 52.8 µM (inactive) | > 100 µM (inactive) | 31.3 µM (inactive) | 39.4 µM (inactive) | 57.3 µM (inactive) | 60.8 µM (inactive) | 37.8 µM (inactive) | > 100 µM (inactive) | > 100 µM (inactive) | 57.5 µM (inactive) | 43.9 µM (inactive) | 37.8 µM (inactive) | 32.2 µM (inactive) | 35.8 µM (inactive) | 62.2 µM (inactive) | > 100 µM (inactive) | – |
| CSc1nc(=O)cnn1C | – | > 100 µM (inactive) | > 100 µM (inactive) | > 100 µM (inactive) | > 100 µM (inactive) | – | > 100 µM (inactive) | > 100 µM (inactive) | > 100 µM (inactive) | > 100 µM (inactive) | > 100 µM (inactive) | > 100 µM (inactive) | > 100 µM (inactive) | > 100 µM (inactive) | > 100 µM (inactive) | > 100 µM (inactive) | > 100 µM (inactive) | > 100 µM (inactive) | > 100 µM (inactive) | > 100 µM (inactive) |
| NS(=O)(=O)c1ccc(NNC(=O)c2cccc3c(=O)c4ccccc4[nH]c23)cc1 | – | 46.1 µM (inactive) | > 100 µM (inactive) | 43.6 µM (inactive) | > 100 µM (inactive) | 34.4 µM (inactive) | 66.8 µM (inactive) | 42.1 µM (inactive) | > 100 µM (inactive) | 34 µM (inactive) | 51.6 µM (inactive) | 78.3 µM (inactive) | 41.4 µM (inactive) | > 100 µM (inactive) | 54.7 µM (inactive) | > 100 µM (inactive) | 48.4 µM (inactive) | 88.5 µM (inactive) | > 100 µM (inactive) | > 100 µM (inactive) |
| CNC(=O)CCCNC(=O)CCCCC(=O)N(C)C | > 100 µM (inactive) | – | > 100 µM (inactive) | – | > 100 µM (inactive) | – | > 100 µM (inactive) | > 100 µM (inactive) | > 100 µM (inactive) | > 100 µM (inactive) | > 100 µM (inactive) | > 100 µM (inactive) | > 100 µM (inactive) | > 100 µM (inactive) | > 100 µM (inactive) | – | > 100 µM (inactive) | > 100 µM (inactive) | > 100 µM (inactive) | – |
| O=C1N/C(=N/N=C/c2c[nH]c3ccccc23)N/C1=C\c1c[nH]c2ccccc12 | 12.7 µM (inactive) | 7.74 µM (inactive) | 30.2 µM (inactive) | 25.6 µM (inactive) | 27 µM (inactive) | 16.8 µM (inactive) | 23.1 µM (inactive) | 21 µM (inactive) | 29 µM (inactive) | 16 µM (inactive) | 20 µM (inactive) | 15.5 µM (inactive) | 11.9 µM (inactive) | 15.8 µM (inactive) | 12.9 µM (inactive) | 28.6 µM (inactive) | 17.5 µM (inactive) | 19.7 µM (inactive) | 20.3 µM (inactive) | – |
| C[C@]12CCC3=NCCN3C1=CC[C@@H]1[C@@H]2CC[C@@]2(C)[C@H]1CC[C@]2(C)O | 26.9 µM (inactive) | – | > 100 µM (inactive) | 96.4 µM (inactive) | 84.9 µM (inactive) | 37.2 µM (inactive) | 16.1 µM (inactive) | 82.6 µM (inactive) | 89.1 µM (inactive) | 61.9 µM (inactive) | > 100 µM (inactive) | 24.5 µM (inactive) | 58.1 µM (inactive) | 45.9 µM (inactive) | 15 µM (inactive) | 40.7 µM (inactive) | 87.1 µM (inactive) | 29.3 µM (inactive) | 50 µM (inactive) | – |
| CC(C)c1nc(Cl)nc(Cl)c1Cl | 3.27 µM (inactive) | < 0.01 µM (active) | 3.12 µM (inactive) | 1.63 µM (inactive) | 0.794 µM (active) | 0.0233 µM (active) | 0.0479 µM (active) | 0.293 µM (active) | 0.0843 µM (active) | – | 1.24 µM (inactive) | 0.304 µM (active) | 0.303 µM (active) | 0.436 µM (active) | 0.142 µM (active) | 5.11 µM (inactive) | 0.6 µM (active) | 0.266 µM (active) | 0.239 µM (active) | 0.948 µM (active) |
